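96-well plates; 48 h exposure; 5 concentrations. Endpoints by linear interpolation between flanking doses. Not reached: highest tested concentration assigned. TGI is the concentration that stops growth completely.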
Experiments:
Assay in all cases: NCI-60 cell line screen, 48 h
OVCAR-8 ovarian = tested on: OVCAR-8 ovarian
SK-MEL-28 melanoma = tested on: SK-MEL-28 melanoma
MALME-3M melanoma = tested on: MALME-3M melanoma
MDA-MB-435 = tested on: MDA-MB-435
IGROV1 ovarian = tested on: IGROV1 ovarian
HL-60(TB) leukemia = tested on: HL-60(TB) leukemia
RPMI-8226 leukemia = tested on: RPMI-8226 leukemia
OVCAR-5 ovarian = tested on: OVCAR-5 ovarian
TK-10 renal = tested on: TK-10 renal
HS 578T breast = tested on: HS 578T breast
EKVX NSCLC = tested on: EKVX NSCLC
DU-145 prostate = tested on: DU-145 prostate
SR leukemia = tested on: SR leukemia
SK-OV-3 ovarian = tested on: SK-OV-3 ovarian
MDA-N = tested on: MDA-N
ACHN renal = tested on: ACHN renal
RXF 393 renal = tested on: RXF 393 renal

| SMILES | TGI (OVCAR-8 ovarian) [µM] | TGI (SK-MEL-28 melanoma) [µM] | TGI (MALME-3M melanoma) [µM] | TGI (MDA-MB-435) [µM] | TGI (IGROV1 ovarian) [µM] | TGI (HL-60(TB) leukemia) [µM] | TGI (RPMI-8226 leukemia) [µM] | TGI (OVCAR-5 ovarian) [µM] | TGI (TK-10 renal) [µM] | TGI (HS 578T breast) [µM] | TGI (EKVX NSCLC) [µM] | TGI (DU-145 prostate) [µM] | TGI (SR leukemia) [µM] | TGI (SK-OV-3 ovarian) [µM] | TGI (MDA-N) [µM] | TGI (ACHN renal) [µM] | TGI (RXF 393 renal) [µM] |
| --- | --- | --- | --- | --- | --- | --- | --- | --- | --- | --- | --- | --- | --- | --- | --- | --- | --- |
| NC1C/C(=N\O)c2c(Cl)sc(Cl)c21 (centres undefined) | 28.8 | 33.6 | 34.5 | 29.5 | 32 | > 100 | 65.3 | 40 | 31.4 | > 100 | 34 | 29 | > 100 | > 100 | 33.4 | 36.4 |  |
| N=c1c2ccccc2nc2oc3cc([N+](=O)[O-])ccc3n12 | 51.2 | > 100 | > 100 | > 100 | > 100 |  | > 100 | > 100 | 36.6 | 50.7 | 89 |  | > 100 | 37.1 | > 100 | 57.7 | 32.5 |
| COc1cc(C(=O)NNC(=O)c2cc(Br)ccc2NC(=O)c2cccs2)cc(OC)c1OC | 59.9 |  | 86.1 | 50 | > 100 | 93.6 | 43.5 | 45.3 | > 100 | 62.1 | 27 | > 100 | > 100 | 36.5 | 74.9 | 43.6 | 29.1 |
| COc1ccccc1C[C@@H]1OC2(C=CC(=O)CC2SC(=O)c2ccccc2)O[C@H]1Cc1ccccc1OC (some centres undefined) |  | 3.22 | 4.26 | 4.61 | 2.74 | 5.64 | 0.943 | 2.63 | 5.07 | 4.73 |  | 18 | 2.81 | 5.04 | 6.16 | 3.5 | 0.501 |
| CCCN(CCc1ccc(-c2ccccc2)cc1)CCc1ccc2n[nH]nc2c1 | 36.3 | 13.6 | 22.8 | 28.6 | 22.1 |  | 28.1 | 33.6 | 25.7 | 51.8 | 27.5 | 23.9 | 17.9 | 28.5 | 19.1 | 25.4 | 33.1 |
| C=C(C)C1CC=C(C)C(=O)C1 (centres undefined) | > 100 | > 100 | > 100 | > 100 | > 100 | > 100 | > 100 | > 100 | > 100 | > 100 | > 100 | > 100 | > 100 |  | > 100 | > 100 |  |
| CCCCCCCCCCCCCCCCP(=O)(O)OCC(N)C(=O)O (centres undefined) | > 100 | > 100 | > 100 | > 100 | 28.9 | 39.2 | 62.7 | 65.1 |  | > 100 | > 100 | > 100 | 91.3 | > 100 | > 100 | 68.8 | 75.1 |
